Consider 52 molecules from patent publication US20050026968A1, “Heterocyclic amides with anti-tuberculosis activity” (priority 2003, published 2005).

Each structure is given as a SMILES string. In brackets after ≈: the same amount, converted by molar mass.

For one experiment, the system named is M. tuberculosis H37Ra. Description: MIC against M. tuberculosis H37Ra, micro broth dilution in microtiter plates.
Settings: not given
Turning to `COc1ccc(NC(=O)c2ccc([N+](=O)[O-])o2)cc1Cl` [Compound 1], the “MIC against whole cells” value stood at 1.6 µg/mL (≈ 5.39 µM). `CN(C(=O)c1ccc([N+](=O)[O-])o1)c1ccccc1` [Compound 41] gave an MIC of 3.1 µg/mL (≈ 12.6 µM).

Still in this experiment, the particulars now being: Mycobacterium tuberculosis, H37RA.
Turning to `O=C(NCc1ccc(N2CCN(Cc3ccccc3)CC2)cc1)c1ccc([N+](=O)[O-])o1` [Compound 66, 5-Nitro-furan-2-carboxy1ic acid 4-(4-benzyl-piperazin-1-yl)-benzylamide], the MIC is 0.006 µg/mL (≈ 0.0143 µM).

For the molecule `CN1CCN(C(=O)c2ccc([N+](=O)[O-])o2)CC1` [Compound 76], it took 37.5 µg/mL (≈ 157 µM) to inhibit growth (MIC).

Still in this experiment, the particulars now being: Mycobacterium tuberculosis, H37RA, 168 h, read-out: TB MIC, Table 1; M. tuberculosis H37Ra, 7 days, MIC90 (>90% inhibition of growth).
As for `O=C(NC1CCCCC1)c1ccc([N+](=O)[O-])o1` [Compound 15, 5-Nitro-furan-2-carboxylic acid cyclohexylamide], the MIC is 3.1 µg/mL (≈ 13 µM). As for `O=C(NC12CC3CC(CC(C3)C1)C2)c1ccc([N+](=O)[O-])o1` [Compound 16, 5-Nitro-furan-2-carboxylic acid adamantan-1-ylamide], the MIC turned out to be 3.1 µg/mL (≈ 10.7 µM). On the same count and under the same terms, to `O=C(Nc1ccccc1)c1ccc([N+](=O)[O-])o1` [Compound 17, 5-Nitro-furan-2-carboxylic acid phenylamide] belongs 0.8 µg/mL (≈ 3.45 µM); to `COc1ccc(CNC(=O)c2ccc([N+](=O)[O-])o2)cc1` [Compound 20, 5-Nitro-furan-2-carboxylic acid 4-methoxy-benzylamide], 0.1 µg/mL (≈ 0.362 µM). On the same count and under the same terms, to `O=C(NCc1ccccc1Cl)c1ccc([N+](=O)[O-])o1` [Compound 21, 5-Nitro-furan-2-carboxylic acid 2-chloro-benzylamide] belongs 1.6 µg/mL (≈ 5.7 µM). Still for that read-out and setting: under `COc1cc(CNC(=O)c2ccc([N+](=O)[O-])o2)cc(OC)c1OC` [Compound 24, 5-Nitro-furan-2-carboxylic acid 3,4,5-trimethoxy-benzylamide] stands 0.8 µg/mL (≈ 2.38 µM); under `O=C(NC1CCc2ccccc21)c1ccc([N+](=O)[O-])o1` (stereo not shown) [Compound 26, 5-Nitro-furan-2-carboxylic acid indan-1-ylamide], 3.1 µg/mL (≈ 11.4 µM). Take `O=C(NCCc1ccccc1)c1ccc([N+](=O)[O-])o1` [Compound 27, 5-Nitro-furan-2-carboxylic acid phenethyl-amide]: the MIC worked out at 1.6 µg/mL (≈ 6.15 µM). The same measure, in the same setting: under `COc1ccc(CNC(=O)c2ccc(Br)o2)cc1` [Compound 32, 5-Bromo-furan-2-carboxylic acid 4-methoxy-benzylamide] stands 200 µg/mL (≈ 645 µM). Same read-out and setting: to `COc1cccc(NC(=O)c2ccc(S(=O)(=O)O)o2)c1` [Compound 34, 5-(3-Methoxy-phenylcarbamoyl)-furan-2-sulfonic acid] belongs 200 µg/mL (≈ 673 µM); to `O=C(Nc1cccc(O)c1)c1ccc([N+](=O)[O-])o1` [Compound 35, 5-Nitro-furan-2-carboxylic acid(3-hydroxy-phenyl)-amide], 1.6 µg/mL (≈ 6.45 µM); to `COc1cccc(NC(=O)c2ccc([S+]([O-])c3ccccc3)o2)c1` (stereo not shown) [Compound 38, 5-Benzenesulfinyl-furan-2-carboxylic acid(3-methoxy-phenyl)-amide], 6.25 µg/mL (≈ 18.3 µM). The same measure, in the same setting: to `COc1cccc(NC(=O)c2ccc(S(=O)(=O)c3ccccc3)o2)c1` [Compound 39, 5-Benzenesulfonyl-furan-2-carboxylic acid(3-methoxy-phenyl)-amide] belongs 6.25 µg/mL (≈ 17.5 µM); to `CCOC(=O)c1ccc(C(=O)Nc2cccc(OC)c2)o1` [Compound 40, 5-(3-Methoxy-phenylcarbamoyl)-furan-2-carboxylic acid ethyl ester], 400 µg/mL (≈ 1380 µM); to `O=C(Nc1cnccn1)c1ccc([N+](=O)[O-])o1` [Compound 48, 5-Nitro-furan-2-carboxylic acid pyrazin-2-ylamide], 6.25 µg/mL (≈ 26.7 µM). For the molecule `COc1ccccc1CNC(=O)c1ccc([N+](=O)[O-])o1` [Compound 52, 5-nitro-furan-2-carboxylic acid 2-methoxy-benzylamide], the MIC is 1.6 µg/mL (≈ 5.79 µM). On the same count and under the same terms, under `COc1cccc(CNC(=O)c2ccc([N+](=O)[O-])o2)c1OC` [Compound 53, 5-nitro-furan-2-carboxylic acid 2,3-dimethoxy-benzylamide] stands 1.2 µg/mL (≈ 3.92 µM).

Staying with this experiment, now noted: Mycobacterium tuberculosis, H37RA, Table 4; M. tuberculosis H37Ra, MIC90.
As for `O=C(Nc1ccc(N2CCOCC2)cc1)c1ccc([N+](=O)[O-])o1` [Compound 54, 5-Nitro-furan-2-carboxylic acid(4-morpholin-4-yl-phenyl)-amide], the MIC worked out at 1.6 µg/mL (≈ 5.04 µM). On the same count and under the same terms, under `CN1CCN(c2ccc(NC(=O)c3ccc([N+](=O)[O-])o3)cc2)CC1` [Compound 55, 5-Nitro-furan-2-carboxylic acid[4-(4-methyl-piperazin-1-yl)-phenyl]-amide] stands 6.25 µg/mL (≈ 18.9 µM). The molecule `O=C(Nc1ccc(N2CCN(Cc3ccccc3)CC2)cc1)c1ccc([N+](=O)[O-])o1` [Compound 56, 5-Nitro-furan-2-carboxylic acid[4-(4-benzyl-piperazin-1-yl)-phenyl]-amide] registered an MIC of 0.8 µg/mL (≈ 1.97 µM). Same read-out and setting: under `O=C(Nc1ccc(N2CCC(Cc3ccccc3)CC2)cc1)c1ccc([N+](=O)[O-])o1` [Compound 57, 5-Nitro-furan-2-carboxylic acid[4-(4-benzyl-piperidin-1-y1)-phenyl]-amide] stands 3.1 µg/mL (≈ 7.65 µM). Regarding `O=C(Nc1ccc(N2CCN(c3ccccn3)CC2)cc1)c1ccc([N+](=O)[O-])o1` [Compound 58, 5-Nitro-furan-2-carboxylic acid. [4-(4-pyridin-2-yl-piperazin-1-yl)-phenyl]-amide], the MIC is 0.4 to 0.8 µg/mL (≈ 1.02 to 2.03 µM). On the same count and under the same terms, to `O=C(Nc1cccc(N2CCOCC2)c1)c1ccc([N+](=O)[O-])o1` [Compound 59, 5-Nitro-furan-2-carboxylic acid(3-morpholin-4-yl-phenyl)-amide] belongs 3.1 µg/mL (≈ 9.77 µM); to `CN1CCN(c2cccc(NC(=O)c3ccc([N+](=O)[O-])o3)c2)CC1` [Compound 60, 5-Nitro-furan-2-carboxylic acid[3-(4-methyl-piperazin-1-yl)-phenyl]-amide], 12.5 µg/mL (≈ 37.8 µM); to `O=C(Nc1cccc(N2CCN(Cc3ccccc3)CC2)c1)c1ccc([N+](=O)[O-])o1` [Compound 61, 5-Nitro-furan-2-carboxylic acid[3-(4-benzyl-piperazin-1-yl)-phenyl]-amide], 12.5 µg/mL (≈ 30.8 µM). On the same count and under the same terms, to `O=C(Nc1cccc(N2CCC(Cc3ccccc3)CC2)c1)c1ccc([N+](=O)[O-])o1` [Compound 62, 5-Nitro-furan-2-carboxylic acid[3-(4-benzyl-piperidin-1-yl)-phenyl]-amide] belongs 12.5 µg/mL (≈ 30.8 µM); to `O=C(Nc1cccc(N2CCN(c3ccccn3)CC2)c1)c1ccc([N+](=O)[O-])o1` [Compound 63, 5-Nitro-furan-2-carboxylic acid[3-(4-pyridin-2-yl-piperazin-1-yl)-phenyl]-amide], 1.6 µg/mL (≈ 4.07 µM); to `O=C(NCc1ccc(N2CCOCC2)cc1)c1ccc([N+](=O)[O-])o1` [Compound 64, 5-Nitro-furan-2-carboxylic acid 4-morpholin-4-yl-benzylamide], 0.1 µg/mL (≈ 0.302 µM).

`O=C(NCc1ccc(N2CCN(Cc3ccccc3)CC2)cc1)c1ccc([N+](=O)[O-])o1` [Compound 66, 5-Nitro-furan-2-carboxy1ic acid 4-(4-benzyl-piperazin-1-yl)-benzylamide] displayed an MIC of 0.0062 µg/mL (≈ 0.0147 µM). Same read-out and setting: under `O=C(NCc1ccc(N2CCC(Cc3ccccc3)CC2)cc1)c1ccc([N+](=O)[O-])o1` [Compound 67, 5-Nitro-furan-2-carboxylic acid 4-(4-benzyl-piperidin-1-yl)-benzylamide] stands less than 0.1 µg/mL; under `CN1CCN(c2cccc(CNC(=O)c3ccc([N+](=O)[O-])o3)c2)CC1` [Compound 68, 5-Nitro-furan-2-carboxylic acid 3-(4-methyl-piperazin-1-yl)-benzylamide], 3.1 µg/mL (≈ 9 µM); under `O=C(NCc1cccc(N2CCN(Cc3ccccc3)CC2)c1)c1ccc([N+](=O)[O-])o1` [Compound 69, 5-Nitro-furan-2-carboxylic acid 3-(4-benzyl-piperazin-1-yl)-benzylamide], less than 0.1 µg/mL. On the same count and under the same terms, under `O=C(NCc1cccc(N2CCC(Cc3ccccc3)CC2)c1)c1ccc([N+](=O)[O-])o1` [Compound 70, 5-Nitro-furan-2-carboxylic acid 3-(4-benzyl-piperidin-1-yl)-benzylamide] stands 0.0062 µg/mL (≈ 0.0148 µM); under `O=C(c1ccc([N+](=O)[O-])o1)N1Cc2ccccc2C1` [Compound 71], 0.78 µg/mL (≈ 3.02 µM).

Still in this experiment, the particulars now being: Mycobacterium tuberculosis, H37RA, Table 5; M. tuberculosis H37Ra, MIC90.
With `O=C(c1ccc([N+](=O)[O-])o1)N1CCC(Cc2ccccc2)CC1` [Compound 72], the MIC turned out to be 0.29 µg/mL (≈ 0.923 µM). Same read-out and setting: to `O=C(c1ccc([N+](=O)[O-])o1)N1CCN(Cc2ccccc2)CC1` [Compound 73] belongs 0.59 µg/mL (≈ 1.87 µM); to `O=C(NCc1ccc2c(c1)OCO2)c1ccc([N+](=O)[O-])o1` [Compound 74], 0.15 µg/mL (≈ 0.517 µM); to `COc1cc2c(cc1OC)CN(C(=O)c1ccc([N+](=O)[O-])o1)CC2` [Compound 75], 0.15 µg/mL (≈ 0.451 µM). Still for that read-out and setting: to `CN1CCN(C(=O)c2ccc([N+](=O)[O-])o2)CC1` [Compound 76] belongs 37.5 µg/mL (≈ 157 µM); to `CC(C)NC(=O)CN1CCN(C(=O)c2ccc([N+](=O)[O-])o2)CC1` [Compound 78], 6.25 µg/mL (≈ 19.3 µM); to `O=C(c1ccc([N+](=O)[O-])o1)N1CCC(O)(Cc2ccccc2)CC1` [Compound 79], 1.56 µg/mL (≈ 4.72 µM). On the same count and under the same terms, to `O=C(c1ccc([N+](=O)[O-])o1)N1CCN(C2CCCCC2)CC1` [Compound 80] belongs 6.25 µg/mL (≈ 20.3 µM); to `COc1ccccc1N1CCN(C(=O)c2ccc([N+](=O)[O-])o2)CC1` [Compound 82], 1.56 µg/mL (≈ 4.71 µM); to `O=C(c1ccc([N+](=O)[O-])o1)N1CCN(Cc2cccc(O)c2)CC1` [Compound 83], 0.8 µg/mL (≈ 2.41 µM). In the case of `O=C(c1ccc([N+](=O)[O-])o1)N1CCN(Cc2ccc(O)cc2)CC1` [Compound 84], the MIC worked out at 1.56 µg/mL (≈ 4.71 µM).

The molecule `COc1ccc(CN2CCN(C(=O)c3ccc([N+](=O)[O-])o3)CC2)cc1` [Compound 85] gave an MIC of less than 0.1 µg/mL. Still for that read-out and setting: under `COc1cccc(CN2CCN(C(=O)c3ccc([N+](=O)[O-])o3)CC2)c1` [Compound 86] stands 1.56 µg/mL (≈ 4.52 µM); under `O=C(c1ccc([N+](=O)[O-])o1)N1CCN(Cc2cccc(OCc3ccccc3)c2)CC1` [Compound 87], 1.56 µg/mL (≈ 3.7 µM).

The experiment is the same for the next values; noted with them: Table 5; M. tuberculosis H37Ra, MIC90.
With `O=C(c1ccc([N+](=O)[O-])o1)N1CCN(c2ncccn2)CC1` [Compound 77], the MIC was determined as 0.025 µg/mL (≈ 0.0824 µM). The same measure, in the same setting: under `O=C(c1ccc([N+](=O)[O-])o1)N1CCN(c2ncccn2)CC1` [Compound 81] stands 0.1 µg/mL (≈ 0.33 µM).

The same experiment, now with this note: against H37Ra; in words.
`O=C(NCc1ccc(N2CCN(Cc3ccccc3)CC2)cc1)c1ccc([N+](=O)[O-])o1` [Compound 66, 5-Nitro-furan-2-carboxy1ic acid 4-(4-benzyl-piperazin-1-yl)-benzylamide]: the “MIC activity compared with classical TB drugs (FIG. 1)” value is reported as “more active than isoniazid”.
